# Reference: ChEMBL document CHEMBL2029318, “Synthesis and SAR of selective small molecule neuropeptide Y Y2 receptor antagonists” (Bioorg Med Chem Lett, 2012)
# Activity calls are given as the source filed them.
# Legend:
# Format in all cases: functional
# [1] = biological target: T1, Neuropeptide Y receptor type 1 (Homo sapiens) (UniProt P25929); experiment: Antagonist activity at neuropeptide Y receptor Y1 at 10 uM
# T1 sequence (whole entry): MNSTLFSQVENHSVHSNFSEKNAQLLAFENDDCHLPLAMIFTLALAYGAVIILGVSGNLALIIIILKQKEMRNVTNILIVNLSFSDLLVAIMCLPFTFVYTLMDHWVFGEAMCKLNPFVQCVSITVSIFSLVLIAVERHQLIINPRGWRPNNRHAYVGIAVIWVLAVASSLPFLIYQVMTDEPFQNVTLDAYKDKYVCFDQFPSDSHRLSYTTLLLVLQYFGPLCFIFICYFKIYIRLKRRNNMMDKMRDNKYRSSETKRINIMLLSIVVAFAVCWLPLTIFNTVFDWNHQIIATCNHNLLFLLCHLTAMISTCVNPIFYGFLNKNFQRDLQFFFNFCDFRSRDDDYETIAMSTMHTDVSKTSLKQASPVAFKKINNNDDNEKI
# [2] = biological target: T2, Neuropeptide Y receptor type 2 (Homo sapiens, UniProt P49146); experiment: Partial antagonist activity at neuropeptide Y receptor Y2
# T2 sequence (P49146 whole entry): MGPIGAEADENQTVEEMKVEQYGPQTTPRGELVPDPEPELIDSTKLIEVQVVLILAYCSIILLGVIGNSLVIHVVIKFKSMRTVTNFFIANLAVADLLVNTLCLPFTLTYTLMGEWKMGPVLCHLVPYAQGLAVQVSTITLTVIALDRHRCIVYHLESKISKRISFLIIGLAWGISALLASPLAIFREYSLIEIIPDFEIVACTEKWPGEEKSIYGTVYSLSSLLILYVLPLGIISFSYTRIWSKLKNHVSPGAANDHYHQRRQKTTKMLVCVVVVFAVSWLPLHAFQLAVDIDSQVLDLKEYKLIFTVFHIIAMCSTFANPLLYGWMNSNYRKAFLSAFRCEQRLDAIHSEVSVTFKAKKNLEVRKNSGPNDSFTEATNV
# [3] = biological target: T3, Neuropeptide Y receptor type 2 (Homo sapiens) (UniProt P49146); experiment: Antagonist activity at neuropeptide Y receptor Y2 at 10 uM
# T3 sequence (whole entry): T2 sequence (P49146 whole entry)
SMILES,Activity [1],IC50 [2] [µM],Activity [3]
COc1ccc(NC(=S)N2CCC(C(O)(c3ccccc3)c3ccccc3)CC2)cc1C(F)(F)F,inactive,6.08,–
COc1cccc(NC(=S)N2CCC(C(O)(c3ccccc3)c3ccccc3)CC2)c1,inactive,8.16,–
OC(c1ccccc1)(c1ccccc1)C1CCN(C(=S)Nc2cccc(C(F)(F)F)c2)CC1,inactive,–,inactive
OC(c1ccccc1)(c1ccccc1)C1CCN(C(=S)Nc2ccccc2)CC1,inactive,–,inactive
COC(c1ccccc1)(c1ccccc1)C1CCN(C(=S)Nc2ccc(S(=O)(=O)N(C)C)cc2)CC1,inactive,–,inactive
OC(c1ccccc1)(c1ccccc1)C1CCN(C(=S)Nc2ccc(N3CCCCC3)cc2)CC1,inactive,0.271,–
CCOC(=O)c1cccc(NC(=S)N2CCC(C(O)(c3ccccc3)c3ccccc3)CC2)c1,inactive,0.238,–
CN(C)S(=O)(=O)c1ccc(NC(=S)N2CCN(C3c4ccccc4CCc4ccccc43)CC2)cc1,inactive,–,inactive
CCOc1ccc(NC(=S)N2CCC(C(O)(c3ccccc3)c3ccccc3)CC2)c(C)c1,inactive,–,inactive
CN(C)S(=O)(=O)c1ccc(NC(=S)N2CCC(C(O)(c3ccccc3)c3cccnc3)CC2)cc1 (configuration not stated),inactive,–,inactive
CCOc1ccc(NC(=S)N2CCC(C(O)(c3ccccc3)C3CCCCC3)CC2)cc1 (configuration not stated),inactive,–,inactive
